Data from patent publication US9139581B2 (PORTOLA PHARMACEUTICALS, INC., priority 2008, dated 2015).

What follows are molecules tested against T1, full length active recombinant SYK enzyme (Homo sapiens, UniProt P43405) (assay: Inhibition of Syk tyrosine phosphorylation activity (LANCE TR-FRET)). Details: Table 3; 1 nM SYK, 100 μM ATP; read-out: Syk IC50 code.
T1 construct: full length active recombinant SYK enzyme (Millipore, Calif.); purchased Millipore
Assay type: biochemical
Procedure: The in vitro and in vivo human syk activities of the inventive compounds can be determined by various procedures known in the art, such as a test for their ability to inhibit the activity of human plasma syk. […] Inhibition of Syk Tyrosine Phosphorylation Activity Potency of candidate molecules for inhibiting syk tyrosine phosphorylation activity is assessed by measuring the ability of a test compound to inhibit syk-mediated tyrosine phosphorylation of a syk-specific substrate. SYK tyrosine phosphorylation activity is measured using the LANCETM Technology developed by Perkin Elmer Life and Analytical Sciences (Boston, Mass.). LANCETM refers to homogeneous time resolved fluorometry applications using techniques such as time-resolved fluorescence resonance energy transfer assay (TR-FRET) (see generally for procedures in Perkin Elmer Application Note-How to Optimize a Tyrosine Kinase Assay Using Time Resolved Fluorescence-Based LANCE Detection, wwww.perkinelmer.com/lifesciences). The assay principle involves detection of a phosphorylated substrate using energy transfer from a phosphospecific europium-labeled antibody to streptavidin-allophycocyanin as an acceptor. To test the ability of candidate molecules to inhibit SYK tyrosine phosphorylation activity, molecules are reconstituted in 30% DMSO and serially diluted 1:3 with the final dilution containing DMSO in the absence of the candidate molecule. The final DMSO concentration in the assay is 3%. Kinase assays are performed as a two part reaction. The first reaction is a kinase reaction and which comprises of a candidate molecule, full length active recombinant SYK enzyme (Millipore, Calif.) and biotin-labeled SYK-specific substrate biotin-[…]-OH. The second reaction involves termination of the kinase reaction and the simultaneous addition of the detection reagents-europium-labeled anti-phosphotyrosine reagent (Eu-W1024-PY100, Perkin Elmer, Boston, Mass.) and Streptavidin-Allophycocyanin detection reagent (SA-APC, Prozyme, Calif.). The kinase reaction is performed in a black U-bottom 96-well microtitre plate. […] The reaction is allowed to proceed for 1 hour at room temperature. […] The detection reagents are added to the reaction mixture at the following dilutions-1:500 for Eu-W1024-PY100 and 1:250 for SA-APC. The kinase reaction is terminated by the addition of 50 μL quench buffer containing the detection reagents. The detection is allowed to proceed for 1 hr at room temperature. Detection of the phosphorlated substrate in the absence and presence of inhibitors is measured in the TR-FRET instrument, Analyst HT ([…], Sunnyvale, Calif.) and the condition for measurements are set up using CriterionHost Release 2.0 ([…], Sunnyvale, Calif.). […] IC50s were derived by non-linear regression analysis.

Question: Which IC50 does the source give for `C[C@@H](CO)Nc1nc(Nc2ccc(N3CCNCC3)cc2)nc2[nH]ccc12` [Example 99B, (S)-2-(2-(4-(piperazin-1-yl)phenylamino)-7H-pyrrolo[2,3-d]pyrimidin-4-ylamino)propan-1-ol] here?
Answer: The IC50 was 100 to 1000 nM.

Question: With `CC(=O)N(C)c1ccc(Nc2nc(NC3CC3)c3c(C#N)c[nH]c3n2)cc1` [Example 105, N-(4-(5-cyano-4-(cyclopropylamino)-7H-pyrrolo[2,3-d]pyrimidin-2-ylamino)phenyl)-N-methylacetamide] as the molecule, how does the IC50 read?
Answer: The IC50 was 10 to 100 nM.

Question: How did the IC50 turn out when `NC(=O)c1cnc(-n2ncc3ccc(N)c(Cl)c32)nc1NC1CC1` [Example 7, 2-(6-amino-7-chloro-1H-indazol-1-yl)-4-(cyclopropylamino)pyrimidine-5-carboxamide] was run?
Answer: The IC50 was 100 to 1000 nM.

Question: How did the IC50 turn out when `CC(=O)N1CCN(c2ccc(Nc3nc(NC4CCS(=O)(=O)C4)c4cc[nH]c4n3)cc2)CC1` (stereo not drawn) [Example 100A, 1-(4-(4-(4-(1,1-dioxy-tetrahydrothiophen-3-ylamino)-7H-pyrrolo[2,3-d]pyrimidin-2-ylamino)phenyl)piperazin-1-yl)ethanone] was run?
Answer: Its IC50 is greater than 1000 nM.

Question: Which IC50 does the source give for `NCC1CCN(c2nc(Nc3ccc4c(c3)CCC(=O)N4)ncc2Br)CC1` [Example 132, 6-(4-(4-(aminomethyl)piperidin-1-yl)-5-bromopyrimidin-2-ylamino)-3,4-dihydroquinolin-2(1H)-one] here?
Answer: The IC50 was 10 to 100 nM.

Question: Which IC50 does the source give for `NC(=O)c1cccc(Nc2nc(Nc3ccc(N4CCNCC4)cc3)nc3[nH]ccc23)c1` [Example 95B, 3-(2-(4-(piperazin-1-yl)phenylamino)-7H-pyrrolo[2,3-d]pyrimidin-4-ylamino)benzamide] here?
Answer: Its IC50 is 100 to 1000 nM.

Question: Which IC50 does the source give for `c1cc2c(NCCCN3CCOCC3)nc(Nc3ccc4cn[nH]c4c3)nc2[nH]1` [Example 61, N2-(1H-indazol-6-yl)-N4-(3-morpholinopropyl)-7H-pyrrolo[2,3-d]pyrimidine-2,4-diamine] here?
Answer: Its IC50 is greater than 1000 nM.

Question: How did the IC50 turn out when `CC(=O)N1CCN(c2ccc(Nc3nc(NCC4CCNCC4)c4c(-c5ccncc5)c[nH]c4n3)cc2)CC1` [Example 44, 1-(4-(4-(4-(piperidin-4-ylmethylamino)-5-(pyridin-4-yl)-7H-pyrrolo[2,3-d]pyrimidin-2-ylamino)phenyl)piperazin-1-yl)ethanone] was run?
Answer: The IC50 was greater than 1000 nM.

Question: How did the IC50 turn out when `CN1C(=O)CCc2cc(Nc3nc(N)c4c(-c5ccc(F)cc5)c[nH]c4n3)ccc21` [Example 113, 6-(4-Amino-5-(4-fluorophenyl)-7H-pyrrolo[2,3-d]pyrimidin-2-ylamino)-1-methyl-3,4-dihydroquinolin-2(1H)-one] was run?
Answer: Its IC50 is greater than 1000 nM.

Question: How did the IC50 turn out when `CC(=O)N1CCN(c2ccc(Nc3nc(N[C@@H](C)CO)c4cc[nH]c4n3)cc2)CC1` [Example 99A, (S)-1-(4-(4-(4-(1-hydroxypropan-2-ylamino)-7H-pyrrolo[2,3-d]pyrimidin-2-ylamino)phenyl)piperazin-1-yl)ethanone] was run?
Answer: Its IC50 is 100 to 1000 nM.

Question: With `CC(=O)N1CCN(c2ccc(Nc3nc(NCCOCCN)c4cc[nH]c4n3)cc2)CC1` [Example 93, 1-(4-(4-(4-(2-(2-aminoethoxy)amino)-7H-pyrrolo[2,3-d]pyrimidin-2-ylamino)phenyl)piperazin-1-yl)ethanone] as the molecule, how does the IC50 read?
Answer: The IC50 was 100 to 1000 nM.

Question: With `CC(=O)N(C)c1ccc(Nc2ncc(F)c(N3CCC(CNC(=O)OC(C)(C)C)CC3)n2)cc1` [Example 28, tert-butyl (1-(5-fluoro-2-(4-(N-methylacetamido)phenylamino)pyrimidin-4-yl)piperidin-4-yl)methylcarbamate] as the molecule, how does the IC50 read?
Answer: Its IC50 is greater than 1000 nM.

Question: `COC(=O)N(C)c1ccc(Nc2nc(NC3CCC3)c3cc[nH]c3n2)cc1` [Example 72, Methyl 4-(4-(cyclobutylamino)-7H-pyrrolo[2,3-d]pyrimidin-2-ylamino)phenyl(methyl)carbamate] was tested. Which IC50 did it give?
Answer: The IC50 was 100 to 1000 nM.

Question: `N#Cc1c[nH]c2nc(Nc3ccc4c(c3)CCC(=O)N4)nc(NC3CC3)c12` [Example 103, 4-(cyclopropylamino)-2-(2-oxo-1,2,3,4-tetrahydroquinolin-6-ylamino)-7H-pyrrolo[2,3-d]pyrimidine-5-carbonitrile] was tested. Which IC50 did it give?
Answer: Its IC50 is 1 to 10 nM.

Question: How did the IC50 turn out when “6-(5-fluoro-4-(3-oxopiperazin-1-yl)pyrimidin-2-ylamino)-3,4-dihydroquinolin-2(1H)-one [Example 123]” was run?
Answer: Its IC50 is greater than 1000 nM.

Question: How did the IC50 turn out when `CNC(=O)COc1cccc(Nc2nc(Nc3ccc4cn[nH]c4c3)nc3[nH]ccc23)c1` [Example 78] was run?
Answer: Its IC50 is 10 to 100 nM.

Question: How did the IC50 turn out when `CN(C(=O)CO)c1ccc(Nc2nc(NC3CC3)c3cc[nH]c3n2)cc1` [Example 75, N-(4-(4-(cyclopropylamino)-7H-pyrrolo[2,3-d]pyrimidin-2-ylamino)phenyl)-2-hydroxy-N-methylacetamide] was run?
Answer: Its IC50 is 10 to 100 nM.

Question: `CN(CC(=O)O)S(=O)(=O)c1ccc(Nc2nc(NC3CCC3)c3cc[nH]c3n2)cc1` [Example 55, 2-(4-(4-(cyclobutylamino)-7H-pyrrolo[2,3-d]pyrimidin-2-ylamino)-N-methylphenylsulfonamido)acetic acid] was tested. Which IC50 did it give?
Answer: Its IC50 is 10 to 100 nM.

Question: `NC(=O)c1cnc(-[n+]2ccc(-c3ccc(N)cc3)cc2)nc1NC1CC1` [Example 5, 4-(4-aminophenyl)-1-(5-carbamoyl-4-(cyclopropylamino)pyrimidin-2-yl)pyridinium] was tested. Which IC50 did it give?
Answer: Its IC50 is greater than 1000 nM.

Question: `Cc1cc2c(NC3CCC3)nc(Nc3ccc4cn[nH]c4c3)nc2[nH]1` [Example 59, N4-cyclobutyl-N2-(1H-indazol-6-yl)-6-methyl-7H-pyrrolo[2,3-d]pyrimidine-2,4-diamine] was tested. Which IC50 did it give?
Answer: Its IC50 is greater than 1000 nM.

Question: `CN(C)CC1CCN(c2nc(Nc3ccc(C(N)=O)cc3)ncc2F)CC1` [Example 133, 4-(4-(4-((dimethylamino)methyl)piperidin-1-yl)-5-fluoropyrimidin-2-ylamino)benzamide] was tested. Which IC50 did it give?
Answer: Its IC50 is greater than 1000 nM.

Question: Which IC50 does the source give for `CCCCOC(=O)CC1CCN(c2nc(Nc3ccc4c(c3)CCC(=O)N4)nc3[nH]ccc23)CC1` [Example 119, Butyl 2-(1-(2-(2-oxo-1,2,3,4-tetrahydroquinolin-6-ylamino)-7H-pyrrolo[2,3-d]pyrimidin-4-yl)piperidin-4-yl)acetate] here?
Answer: The IC50 was greater than 1000 nM.

Question: With `N#Cc1c[nH]c2nc(Nc3ccc4cn[nH]c4c3)nc(NC3CC3)c12` [Example 40, 2-(1H-indazol-6-ylamino)-4-(cyclopropylamino)-7H-pyrrolo[2,3-d]pyrimidine-5-carbonitrile] as the molecule, how does the IC50 read?
Answer: Its IC50 is 10 to 100 nM.

Question: With `CC(=O)N1CCN(c2ccc(Nc3ncc(F)c(N[C@H]4CC[C@@H](N)CC4)n3)cc2)CC1` [Example 142, 1-(4-(4-(4-((1s,4s)-4-aminocyclohexylamino)-5-fluoropyrimidin-2-ylamino)phenyl)piperazin-1-yl)ethanone] as the molecule, how does the IC50 read?
Answer: The IC50 was 100 to 1000 nM.

Question: How did the IC50 turn out when `CCOC(=O)CN1C(=O)CCc2cc(Nc3nc(NC4CCC4)c4cc[nH]c4n3)ccc21` [Example 69, Ethyl 2-(6-(4-(cyclobutyamino)-7H-pyrrolo-[2,3-d]pyrimidine-2-ylamino)-2-oxo-3,4-dihydroquinolin-1(2H)-yl)acetate] was run?
Answer: The IC50 was 10 to 100 nM.

Question: How did the IC50 turn out when `O=C(O)CC1CCN(c2nc(Nc3ccc4c(c3)CCC(=O)N4)nc3[nH]ccc23)CC1` [Example 120, 2-(1-(2-(2-oxo-1,2,3,4-tetrahydroquinolin-6-ylamino)-7H-pyrrolo[2,3-d]pyrimidin-4-yl)piperidin-4-yl)acetic acid] was run?
Answer: Its IC50 is greater than 1000 nM.

Question: For `CC(=O)N1CCN(c2ccc(Nc3ncc(Cl)c(N4CCC(CN)CC4)n3)cc2)CC1` [Example 122, 1-(4-(4-(4-(4-(aminomethyl)piperidin-1-yl)-5-chloropyrimidin-2-ylamino)phenyl)piperazin-1-yl)ethanone], which IC50 is on record?
Answer: Its IC50 is 10 to 100 nM.

Question: How did the IC50 turn out when `CN1C(=O)CCc2cc(Nc3nc(Nc4ccc(F)cc4)c4c(-c5ccncc5)c[nH]c4n3)ccc21` [Example 112, 6-(4-(4-fluorophenylamino)-5-(pyridin-4-yl)-7H-pyrrolo[2,3-d]pyrimidin-2-ylamino)-1-methyl-3,4-dihydroquinolin-2(1H)-one] was run?
Answer: Its IC50 is 100 to 1000 nM.

Question: `CN(C(=O)C1CC1)c1ccc(Nc2nc(NC3CC3)c3cc[nH]c3n2)cc1` [Example 81, N-(4-(4-(cyclopropylamino)-7H-pyrrolo[2,3-d]pyrimidin-2-ylamino)phenyl)-N-methylcyclopropanecarboxamide] was tested. Which IC50 did it give?
Answer: The IC50 was 100 to 1000 nM.

Question: For `CN(C)CCCNC(=O)c1ccc(Nc2nc(NC3CCC3)c3cc[nH]c3n2)cc1` [Example 85], which IC50 is on record?
Answer: The IC50 was 100 to 1000 nM.

Question: Which IC50 does the source give for `CC(=O)N(C)c1ccc(Nc2nc(NCCCCCN)c3c(Br)c[nH]c3n2)cc1` [Example 67, N-(4-(4-(5-aminopentylamino)-5-bromo-7H-pyrrolo[2,3-d]pyrimidin-2-ylamino)phenyl)-N-methylacetamide] here?
Answer: Its IC50 is greater than 1000 nM.

Same assay, conditions: Table 4; 1 nM SYK, 100 μM ATP; read-out: syk IC50

Question: How did the IC50 turn out when `CC(C)(C)OC(=O)NCC1CCCCN1c1nc(Nc2ccc3cn[nH]c3c2)ncc1F` (stereo not drawn) [Example 35, tert-butyl (1-(2-(1H-indazol-6-ylamino)-5-fluoropyrimidin-4-yl)piperidin-2-yl)methylcarbamate] was run?
Answer: The IC50 was greater than 1000 nM.

Question: Which IC50 does the source give for `CC(=O)N(C)c1ccc(Nc2ncc(F)c(N3CCC(CNC(=O)OC(C)(C)C)CC3)n2)cc1` [Example 28, tert-butyl (1-(5-fluoro-2-(4-(N-methylacetamido)phenylamino)pyrimidin-4-yl)piperidin-4-yl)methylcarbamate] here?
Answer: Its IC50 is greater than 1000 nM.
